Data taken from patent publication US20260015350A1, “AZAQUINAZOLINE PAN-KRAS INHIBITORS” (Mirati Therapeutics, Inc., priority 2022, published 2026).

Legend:
[1] = system: KRas-mediated phosphorylation of ERK in A549 cells; assay: Inhibition of KRas-mediated phosphorylation of ERK (Cisbio HTRF pERK), A549 cells; assay type: cell-based; conditions: Homo sapiens, HTRF pERK
Outline: (§1)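 Compound treatment lasts 3 hrs on 6,000 seeded cells, testing 10 doses from a 10 uM top concentration in 3-fold decrements at 0.8% final DMSO. Trametinib at 0.2 uM defines the Min signal. Detection is HTRF on cold-lysed cell extracts.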

[2] = system: KRas-mediated phosphorylation of ERK in H460 cells; assay: Inhibition of KRas-mediated phosphorylation of ERK (Cisbio HTRF pERK), H460 cells; assay type: cell-based; conditions: Homo sapiens, NCI-H460, HTRF pERK
Outline: (§2)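 Each compound was tested at 10 concentrations, threefold apart with 10 uM the highest, for 3 hrs on 6,000 seeded cells; final DMSO was 0.8% and Trametinib (0.2 uM) served as Min control. Lysed cells were analysed for pERK by HTRF.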

[3] = system: KRas-mediated phosphorylation of ERK in MKN1 cells; assay: Inhibition of KRas-mediated phosphorylation of ERK (Cisbio HTRF pERK), MKN1 cells; assay type: cell-based; conditions: Homo sapiens, MKN-1
Outline: (§3)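 Day 1 seeding: 6,000 cells per well, RPMI/10% FBS, left overnight at 37° C. with 5% CO2. Plates then stood covered for 4 h at room temperature prior to HTRF detection of pERK.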

[4] = system: KRas-mediated phosphorylation of ERK in H727 cells; assay: Inhibition of KRas-mediated phosphorylation of ERK (Cisbio HTRF pERK), H727 cells; assay type: cell-based; conditions: Homo sapiens, NCI-H727, H727 cells; HTRF pERK
Outline: as §2

KRas^G12D = target: T1, KRas^G12D (Homo sapiens, UniProt P01116, G12D); assay: KRas binding assay (TR-FRET tracer displacement), KRas G12D
T1 construct: Biotinylated KRas (corresponding to amino acids 1-169, produced at Accelegan Inc.); biotin (biotinylated); purchased Accelegan Inc

[5] = system: KRas-mediated phosphorylation of ERK in H358 cells; assay: Inhibition of KRas-mediated phosphorylation of ERK (Cisbio HTRF pERK), H358 cells; assay type: cell-based; conditions: Homo sapiens, NCI-H358, HTRF pERK
Outline: as §2

KRas^G12V = target: T2, KRas^G12V (Homo sapiens, UniProt P01116, G12V); assay: KRas binding assay (TR-FRET tracer displacement), KRas G12V
T2 construct: Biotinylated KRas (corresponding to amino acids 1-169, produced at Accelegan Inc.); biotin (biotinylated); purchased Accelegan Inc

[6] = system: KRas-mediated phosphorylation of ERK in HCT116 cells; assay: Inhibition of KRas-mediated phosphorylation of ERK (Cisbio HTRF pERK), HCT116 cells; assay type: cell-based; conditions: Homo sapiens, HCT-116, HTRF pERK
Outline: as §1

[7] = system: KRas-mediated phosphorylation of ERK in AsPC-1 cells; assay: Inhibition of KRas-mediated phosphorylation of ERK (Cisbio HTRF pERK), AsPC-1 cells; assay type: cell-based; conditions: Homo sapiens, ASPC1, AsPC-1 cells; HTRF pERK
Outline: as §2

KRas^G12S = target: T3, KRas^G12S (Homo sapiens, UniProt P01116, G12S); assay: KRas binding assay (TR-FRET tracer displacement), KRas G12S; conditions: TR-FRET tracer displacement, KRas G12S
T3 construct: Biotinylated KRas (corresponding to amino acids 1-169, produced at Accelegan Inc.); biotin (biotinylated); purchased Accelegan Inc

KRas^WT = target: T4, KRas^WT (Homo sapiens, UniProt P01116); assay: KRas binding assay (TR-FRET tracer displacement), KRas WT; conditions: TR-FRET tracer displacement, KRas WT
T4 construct: Biotinylated KRas (corresponding to amino acids 1-169, produced at Accelegan Inc.); biotin (biotinylated); purchased Accelegan Inc

KRas^G12C = target: T5, KRas^G12C (Homo sapiens, UniProt P01116, G12C); assay: KRas binding assay (TR-FRET tracer displacement), KRas G12C; conditions: TR-FRET tracer displacement, KRas G12C
T5 construct: Biotinylated KRas (corresponding to amino acids 1-169, produced at Accelegan Inc.); biotin (biotinylated); purchased Accelegan Inc

KRas^G12R = target: T6, KRas^G12R (Homo sapiens, UniProt P01116, G12R); assay: KRas binding assay (TR-FRET tracer displacement), KRas G12R
T6 construct: Biotinylated KRas (corresponding to amino acids 1-169, produced at Accelegan Inc.); biotin (biotinylated); purchased Accelegan Inc

[8] = system: KRas-mediated phosphorylation of ERK in PSN1 cells; assay: Inhibition of KRas-mediated phosphorylation of ERK (Cisbio HTRF pERK), PSN1 cells; assay type: cell-based; conditions: Homo sapiens
Outline: as §3

T6 sequence (P01116 1-169 isoform P01116-2 G12R): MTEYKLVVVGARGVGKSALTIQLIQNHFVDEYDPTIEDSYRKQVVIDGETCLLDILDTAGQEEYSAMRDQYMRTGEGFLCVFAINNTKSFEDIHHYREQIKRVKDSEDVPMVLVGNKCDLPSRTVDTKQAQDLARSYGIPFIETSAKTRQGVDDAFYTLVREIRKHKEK
T5 sequence (P01116 1-169 isoform P01116-2 G12C): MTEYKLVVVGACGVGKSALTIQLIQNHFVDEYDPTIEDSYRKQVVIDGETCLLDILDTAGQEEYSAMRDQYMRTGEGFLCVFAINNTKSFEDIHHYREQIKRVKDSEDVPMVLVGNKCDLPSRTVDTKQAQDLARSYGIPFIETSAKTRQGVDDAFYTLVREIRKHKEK
T4 sequence (P01116 1-169 isoform P01116-2): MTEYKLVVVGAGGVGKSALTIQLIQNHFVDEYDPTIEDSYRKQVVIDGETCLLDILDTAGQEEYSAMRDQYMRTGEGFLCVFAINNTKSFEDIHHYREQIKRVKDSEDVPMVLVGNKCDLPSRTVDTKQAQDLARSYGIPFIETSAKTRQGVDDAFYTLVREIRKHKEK
T3 sequence (P01116 1-169 isoform P01116-2 G12S): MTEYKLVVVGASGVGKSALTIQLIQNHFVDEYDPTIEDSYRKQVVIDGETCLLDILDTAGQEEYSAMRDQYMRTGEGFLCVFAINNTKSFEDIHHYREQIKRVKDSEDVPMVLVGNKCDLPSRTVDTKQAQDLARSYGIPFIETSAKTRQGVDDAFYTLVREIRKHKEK
T2 sequence (P01116 1-169 isoform P01116-2 G12V): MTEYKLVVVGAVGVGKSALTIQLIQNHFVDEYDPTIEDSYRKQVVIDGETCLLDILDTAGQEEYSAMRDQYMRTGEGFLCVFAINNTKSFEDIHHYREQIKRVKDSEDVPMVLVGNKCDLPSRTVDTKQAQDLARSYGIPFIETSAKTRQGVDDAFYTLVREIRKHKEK
T1 sequence (P01116 1-169 isoform P01116-2 G12D): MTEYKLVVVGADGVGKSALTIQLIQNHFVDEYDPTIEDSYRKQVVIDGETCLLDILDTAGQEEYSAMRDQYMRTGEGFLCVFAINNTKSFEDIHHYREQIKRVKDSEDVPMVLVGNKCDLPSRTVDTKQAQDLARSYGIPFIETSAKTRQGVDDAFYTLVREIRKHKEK

IC50 [1] [nM] | IC50 [2] [nM] | IC50 [3] [nM] | IC50 [4] [nM] | IC50 (KRas^G12D) [nM] | IC50 [5] [nM] | IC50 (KRas^G12V) [nM] | IC50 [6] [nM] | IC50 [7] [nM] | IC50 (KRas^G12S) [nM] | IC50 (KRas^WT) [nM] | IC50 (KRas^G12C) [nM] | IC50 (KRas^G12R) [nM] | IC50 [8] [nM] | SMILES
7 | 8 | 2 | 12 | < 2 | 5 | < 2 | 37 | 21 | < 2 | < 2 | < 2 |  |  | C=C1CN2CC(=C)CC2(COc2nc(N3C[C@@H]4C[C@H](C3)[C@H](O)C4)c3cnc(-c4cc(O)cc5ccc(F)c(CC)c45)c(F)c3n2)C1 [Example 796, (1R,5R,6R)-3-(2-((2,6-dimethylenetetrahydro-1H-pyrrolizin-7a(5H)-yl)methoxy)-7-(8-ethyl-7-fluoro-3-hydroxynaphthalen-1-yl)-8-fluoropyrido[4,3-d]pyrimidin-4-yl)-3-azabicyclo[3.2.1]octan-6-ol]
12 | > 10000 | > 10000 | > 10000 | 189 | 32 | 116 | > 10000 | > 10000 | 2 |  | 2 | 35 | > 10000 | CCc1c(F)ccc2cc(O)cc(-c3ncc4c(N5CC[C@H]6C(=O)O[C@H]6C5)nc(OC[C@@]56CCCN5C[C@H](F)C6)nc4c3F)c12 [Example 802, 3-(7-(8-ethyl-7-fluoro-3-hydroxynaphthalen-1-yl)-8-fluoro-2-(((2R,7aS)-2-fluorotetrahydro-1H-pyrrolizin-7a(5H)-yl)methoxy)pyrido[4,3-d]pyrimidin-4-yl)-8-oxa-3-azabicyclo[4.2.0]octan-7-one]
 |  |  |  | 14 |  | 9 |  |  | 14 | 20 | 11 |  |  | CCc1c(F)ccc2cc(O)cc(-c3nc4c5c(nc(OC[C@@]67CCCN6C[C@H](F)C7)nc5c3F)NCCO4)c12 [Example 803, 5-ethyl-6-fluoro-4-(4-fluoro-2-(((2R,7aS)-2-fluorotetrahydro-1H-pyrrolizin-7a(5H)-yl)methoxy)-9,10-dihydro-8H-7-oxa-1,3,6,10-tetraazacyclohepta[de]naphthalen-5-yl)naphthalen-2-ol]
2820 | 2050 | 504 | 3310 | 45 | 800 | 69 | 1830 | 2310 |  |  |  | 85 | > 10000 | C[C@@]1(O)CCCN(c2nc(OC[C@@]34CCCN3C[C@H](F)C4)nc3c(F)c(-c4ccc(F)c5sc(N)c(C#N)c45)ncc23)C1 [Example 912, 2-amino-7-fluoro-4-(8-fluoro-2-(((2R,7aS)-2-fluorotetrahydro-1H-pyrrolizin-7a(5H)-yl)methoxy)-4-((R)-3-hydroxy-3-methylpiperidin-1-yl)pyrido[4,3-d]pyrimidin-7-yl)benzo[b]thiophene-3-carbonitrile]
51 | 36 | 14 | 74 | < 2 | 9 | < 2 | 60 | 94 |  |  |  | < 2 | 1550 | CCc1c(F)ccc2cc3[nH]ncc3c(-c3ncc4c(N5CCC[C@]6(C5)NC(=O)NC6=O)nc(OC[C@@]56CCCN5C[C@H](F)C6)nc4c3F)c12 [Example 915, (5R)-7-(7-(5-ethyl-6-fluoro-1H-benzo[f]indazol-4-yl)-8-fluoro-2-(((2R,7aS)-2-fluorotetrahydro-1H-pyrrolizin-7a(5H)-yl)methoxy)pyrido[4,3-d]pyrimidin-4-yl)-1,3,7-triazaspiro[4.5]decane-2,4-dione]
 |  |  | 576 | 74 |  | 13 |  | 1380 | 9 | 21 | 18 |  |  | CCc1c(F)ccc2cc(O)cc(-c3ncc4c(N5CC6CCC(C5)S6)nc(OC[C@@]56CCCN5C[C@H](F)C6)nc4c3F)c12 [Example 922, 4-(4-(8-thia-3-azabicyclo[3.2.1]octan-3-yl)-8-fluoro-2-(((2R,7aS)-2-fluorotetrahydro-1H-pyrrolizin-7a(5H)-yl)methoxy)pyrido[4,3-d]pyrimidin-7-yl)-5-ethyl-6-fluoronaphthalen-2-ol]
3 |  |  | 4 | < 2 | 1 | < 2 |  | 13 | < 2 | < 2 | < 2 |  |  | CCc1c(F)ccc2cc(O)cc(-c3ncc4c(N5C[C@@H]6C[C@H](C5)[C@H](O)C6)nc(OCC56CCCN5C/C(=C/F)C6)nc4c3F)c12 (stereo partly drawn) [Example 930, (1R,5R,6R)-3-(7-(8-ethyl-7-fluoro-3-hydroxynaphthalen-1-yl)-8-fluoro-2-(((E)-2-(fluoromethylene)tetrahydro-1H-pyrrolizin-7a(5H)-yl)methoxy)pyrido[4,3-d]pyrimidin-4-yl)-3-azabicyclo[3.2.1]octan-6-ol]
7 |  | 0.2 | 6 | < 2 | 1 | < 2 |  | 11 | < 2 | < 2 | < 2 |  |  | C=C1CN2CCCC2(COc2nc(N3CCCC4(CC(O)C4)C3)c3cnc(-c4cc(O)cc5ccc(F)c(CC)c45)c(F)c3n2)C1 (stereo not drawn) [Example 934, 6-(7-(8-ethyl-7-fluoro-3-hydroxynaphthalen-1-yl)-8-fluoro-2-((2-methylenetetrahydro-1H-pyrrolizin-7a(5H)-yl)methoxy)pyrido[4,3-d]pyrimidin-4-yl)-6-azaspiro[3.5]nonan-2-ol]
 |  |  | 73 | 4 |  | 4 |  | 70 | 5 | 7 | 7 |  |  | C#Cc1c(F)ccc2cc(O)cc(-c3ncc4c(N5CCCC6(CCO6)C5)nc(OC[C@@]56CCCN5C[C@H](F)C6)nc4c3F)c12 (stereo partly drawn) [Example 935, 5-ethynyl-6-fluoro-4-(8-fluoro-2-(((2R,7aS)-2-fluorotetrahydro-1H-pyrrolizin-7a(5H)-yl)methoxy)-4-(1-oxa-6-azaspiro[3.5]nonan-6-yl)pyrido[4,3-d]pyrimidin-7-yl)naphthalen-2-ol]
27 |  | 0.4 | 50 | < 2 | 4 | < 2 |  | 32 | < 2 | < 2 | < 2 |  |  | C=C1CN2CCCC2(COc2nc(N3CCCC4(CC(=O)N4)C3)c3cnc(-c4cc(O)cc5ccc(F)c(CC)c45)c(F)c3n2)C1 (stereo not drawn) [Example 943, 6-(7-(8-ethyl-7-fluoro-3-hydroxynaphthalen-1-yl)-8-fluoro-2-((2-methylenetetrahydro-1H-pyrrolizin-7a(5H)-yl)methoxy)pyrido[4,3-d]pyrimidin-4-yl)-1,6-diazaspiro[3.5]nonan-2-one]
119 |  | 4 | 352 | < 2 | 29 | < 2 |  | 157 | < 2 | < 2 | < 2 |  |  | C=C1CN2CCCC2(COc2nc(N3CC4C(=O)NC(=O)C4C3)c3cnc(-c4cc(O)cc5ccc(F)c(CC)c45)c(F)c3n2)C1 (stereo not drawn) [Example 947, 5-(7-(8-ethyl-7-fluoro-3-hydroxynaphthalen-1-yl)-8-fluoro-2-((2-methylenetetrahydro-1H-pyrrolizin-7a(5H)-yl)methoxy)pyrido[4,3-d]pyrimidin-4-yl)tetrahydropyrrolo[3,4-c]pyrrole-1,3(2H,3aH)-dione]
